Reference: publication PMC8555909, “Identification of CYP 2A6 inhibitors in an effort to mitigate the harmful effects of the phytochemical nicotine” (Journal of cancer metastasis and treatment, 2021)

Molecular target: T1, human CYP2A6 enzyme (cytochrome P450 2A6) (Homo sapiens, UniProt P11509)
T1 construct: purchased Life Technologies PV6140; host or cells: insect cells (baculosomes)
T1 sequence (P11509 1-494): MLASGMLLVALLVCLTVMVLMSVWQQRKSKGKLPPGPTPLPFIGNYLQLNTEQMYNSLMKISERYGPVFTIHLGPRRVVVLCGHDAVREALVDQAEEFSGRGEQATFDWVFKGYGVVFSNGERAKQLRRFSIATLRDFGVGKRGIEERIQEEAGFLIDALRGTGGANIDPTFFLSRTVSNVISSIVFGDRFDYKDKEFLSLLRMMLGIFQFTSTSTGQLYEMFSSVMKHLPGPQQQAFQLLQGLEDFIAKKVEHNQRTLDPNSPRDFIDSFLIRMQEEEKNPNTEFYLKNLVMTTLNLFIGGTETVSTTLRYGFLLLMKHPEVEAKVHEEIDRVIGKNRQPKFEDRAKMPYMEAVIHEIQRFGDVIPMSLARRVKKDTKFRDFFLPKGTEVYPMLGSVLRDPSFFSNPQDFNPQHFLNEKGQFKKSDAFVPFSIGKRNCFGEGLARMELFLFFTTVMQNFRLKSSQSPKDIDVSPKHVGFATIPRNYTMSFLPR
Experiment: P450 2A6 inhibition assay (Vivid CYP450 Screening Kit, baculosomes)
Format: biochemical
Details: for IC50 of P450 2A6 inhibition (in words): dose-response curve; for IC50: microsomes from insect cells expressing human CYP2A6, 10 min pre-incubation, 2 h reaction at room temperature, highest concentration in dose-response curves 40 μM, triplicates; for P450 2A6 inhibition activity (in words): screening at 10 μM followed by dose-response curve
Method: Cytochrome P450 2A6 (Cyp2A6) activity was determined using the Vivid CYP450 Screening Kit (Life Technologies, catalog #PV6140) according to the manufacturer’s instructions. Briefly, a master pre-mix containing baculosomes and regeneration system was prepared using 0.5× Vivid reaction buffer II. The test compounds were dissolved in dimethyl sulfoxide (DMSO) at a concentration of 100 mM. From the stock solutions, each compound was serially diluted in 0.5× Vivid reaction buffer II to make working stocks of 100 μM, 50 μM, 25 μM and so on up to 10 dilutions. It is essential to dilute the DMSO at least 1000-fold when making the working dilutions to prevent its interference with the enzyme activity. An initial high-throughput screening was performed at 10 μM concentration for each compound. For the dose-response curve determination, in a 96-well plate, 40 μL of the diluted solutions of each test compound were added to each well, followed by 50 μl of the master pre-mix, before incubation for 10 min at room temperature. A 10× mixture of Vivid substrate (reconstituted with acetonitrile) and NADP^+ was then prepared. At the end of the incubation period, 10 μL of this solution was added to each well to start the reaction. After 2 hours of incubation in the dark at room temperature, the plate was read at 415 nm on a plate reader (Synergy H1, Biotek). For a positive inhibition control, tranylcypromine (Sigma-Aldrich, cat. #P8511) was used at a final concentration of 100 μM. For a negative (no inhibitor) control, a 1:1000 dilution of pure DMSO in 0.5× Vivid reaction buffer was used. Each concentration in the dose-response curve was set up in triplicates, and each data point was the average of triplicate wells. The % inhibition was calculated using the following equation. %Inhibition=(1−X−B/A−B)*100 where X is the fluorescence observed in presence of the test compound; A is the fluorescence observed in the absence of an inhibitor (no inhibitor control); and B is the fluorescence observed for the positive control. For graphing purposes, percent inhibition vs. anti-log[drug concentration] was plotted. A logistic sigmoidal model was used to fit the data and obtain IC50 values using Graphpad Prism software.
The syntheses of compounds 1 to 7 [Figure 1] were accomplished using the synthetic Schemes 1 and 2. […] Nicotine-mimicking compounds containing imidazole or methyl substituted imidazole side chains with varied sizes of 1–3 carbon alkyl spacers at position 3 of the pyridine ring were synthesized using Scheme 1 (compounds 1, 4 and 7). Based on our previous findings that acetylenic substituents can interact with the P450 active site amino acids and lead to mechanism-based inhibition, triple bond in the form of propargyl ether was incorporated in a second series of compounds at positions 2, 3 or 4 of the pyridine ring as an ether linkage (compounds 3, 6 and 2, respectively). Positions 2 and 4 were used to investigate whether substituted compounds at those positions would show a difference in their inhibition activities compared to the 3-position substituted compound. A longer spacer in between the propargyl ether and the 4-position of the pyridine ring was introduced to investigate whether a greater flexibility in the positioning of the key functional groups (pyridine ring and the alkyne moiety) in the binding site would be achieved. The Vivid CYP450 Screening Kit (Life Technologies, catalog #PV6140) was used for the P450 2A6 inhibition assays. An initial high-throughput screening was performed at a 10 μM concentration followed by a dose-response curve determination.
The inhibition studies on our compounds were performed using a Vivid CYP2A6 Kit (Life Technologies, catalog #PV6140). This kit uses microsomes from insect cells stably expressing human CYP2A6 enzyme. […]

Row | IC50 of P450 2A6 inhibition (in words) | IC50 [µM] | P450 2A6 inhibition activity (in words) | Compound
1 |  | > 40 | much lower inhibition | C#CCOc1ccncc1 [Compound 2, 4-(prop-2-yn-1-yloxy)pyridine]
2 |  |  | did not inhibit | C#CCOc1ccccn1 [Compound 3, 2-(prop-2-yn-1-yloxy)pyridine]
3 |  | > 40 | moderate inhibition activity | C#CCOCCCc1ccncc1 [Compound 5, 4-(3-(prop-2-yn-1-yloxy)propyl)pyridine]
4 | single digit micromolar | 1 |  | C#CCOCc1cccnc1 [Compound 6, 3-((prop-2-yn-1-yloxy)methyl)pyridine]

More lines, now with the values behind:

Row | Compound | IC50 of P450 2A6 inhibition (in words) | IC50 [µM] | P450 2A6 inhibition activity (in words)
5 | Cc1nccn1CCCc1cccnc1 [Compound 1] | single digit micromolar | 9.03 | 
6 | c1cncc(Cn2ccnc2)c1 [Compound 4, 3-((1H-imidazol-1-yl)methyl)pyridine] | single digit micromolar | 5.02 | 
7 | Cc1nccn1Cc1cccnc1 [Compound 7, 3-[(2-methyl-1H-imidazol-1-yl)methyl] pyridine] |  | > 40 | moderate inhibition activity
